# Experiments:
# Type in all cases: in vivo
# Digitaria insularis = assay: Control of weeds at pre-emergence stage (Example 9)
# Source text: (§1) The effect of application of asulam was observed on the growth of weeds at pre-emergence stage for different application rates. The percentage (%) control of weeds has been evaluated and disclosed in Table 9.
# Eleusine indica = assay: as above
# Source text: as §1
# Bidens pilosa = assay: Control of weeds at post-emergence stage (Example 10)
# Source text: (§2) The effect of application of asulam was observed on the growth of weeds at post-emergence stage for different application rates. The percentage (%) control of weeds has been evaluated and disclosed in Table 10.
# Brachiaria plantaginea = assay: as above
# Source text: as §2
# Cynodon dactylon = assay: as above
# Source text: as §2
# Digitaria nuda = assay: as above
# Source text: as §2
structure (smiles),measurement,setting,value
"COC(=O)NS(=O)(=O)c1ccc(N)cc1 [Asulam, asulam]",percentage (%) control of weeds,"Digitaria insularis; 1500 g a.i/ha, 35 DAA",100%
same,percentage (%) control of weeds,"Digitaria insularis; 1500 g a.i/ha, 49 DAA",100%
same,percentage (%) control of weeds,"Digitaria insularis; 1800 g a.i/ha, 28 DAA",99%
same,percentage (%) control of weeds,"Digitaria insularis; 1800 g a.i/ha, 35 DAA",100%
same,percentage (%) control of weeds,"Digitaria insularis; 1800 g a.i/ha, 49 DAA",100%
same,percentage (%) control of weeds,"Digitaria insularis; 2250 g a.i/ha, 28 DAA",100%
same,percentage (%) control of weeds,"Digitaria insularis; 2250 g a.i/ha, 35 DAA",100%
same,percentage (%) control of weeds,"Digitaria insularis; 2250 g a.i/ha, 49 DAA",100%
same,percentage (%) control of weeds,"Digitaria insularis; 2500 g a.i/ha, 28 DAA",99%
same,percentage (%) control of weeds,"Digitaria insularis; 2500 g a.i/ha, 35 DAA",100%
same,percentage (%) control of weeds,"Digitaria insularis; 2500 g a.i/ha, 49 DAA",100%
same,percentage (%) control of weeds,"Eleusine indica; 1200 g a.i/ha, 28 DAA",83%
same,percentage (%) control of weeds,"Eleusine indica; 1200 g a.i/ha, 35 DAA",78%
same,percentage (%) control of weeds,"Eleusine indica; 1200 g a.i/ha, 49 DAA",99%
same,percentage (%) control of weeds,"Eleusine indica; 1500 g a.i/ha, 28 DAA",88%
same,percentage (%) control of weeds,"Eleusine indica; 1500 g a.i/ha, 35 DAA",88%
same,percentage (%) control of weeds,"Eleusine indica; 1500 g a.i/ha, 49 DAA",99%
same,percentage (%) control of weeds,"Eleusine indica; 1800 g a.i/ha, 28 DAA",90%
same,percentage (%) control of weeds,"Eleusine indica; 1800 g a.i/ha, 35 DAA",91%
same,percentage (%) control of weeds,"Eleusine indica; 1800 g a.i/ha, 49 DAA",100%
same,percentage (%) control of weeds,"Eleusine indica; 2250 g a.i/ha, 28 DAA",92%
same,percentage (%) control of weeds,"Eleusine indica; 2250 g a.i/ha, 35 DAA",93%
same,percentage (%) control of weeds,"Eleusine indica; 2250 g a.i/ha, 49 DAA",100%
same,percentage (%) control of weeds,"Eleusine indica; 2500 g a.i/ha, 28 DAA",91%
same,percentage (%) control of weeds,"Eleusine indica; 2500 g a.i/ha, 35 DAA",92%
same,percentage (%) control of weeds,"Eleusine indica; 2500 g a.i/ha, 49 DAA",100%
same,percentage (%) control of weeds,"Bidens pilosa; 1000 g a.i/ha, 28 DAA",100%
same,percentage (%) control of weeds,"Bidens pilosa; 1000 g a.i/ha, 35 DAA",100%
same,percentage (%) control of weeds,"Bidens pilosa; 1000 g a.i/ha, 49 DAA",100%
same,percentage (%) control of weeds,"Bidens pilosa; 1500 g a.i/ha, 28 DAA",100%
same,percentage (%) control of weeds,"Bidens pilosa; 1500 g a.i/ha, 35 DAA",100%
same,percentage (%) control of weeds,"Bidens pilosa; 1500 g a.i/ha, 49 DAA",100%
same,percentage (%) control of weeds,"Bidens pilosa; 1800 g a.i/ha, 28 DAA",94%
same,percentage (%) control of weeds,"Bidens pilosa; 1800 g a.i/ha, 35 DAA",97%
same,percentage (%) control of weeds,"Bidens pilosa; 1800 g a.i/ha, 49 DAA",97%
same,percentage (%) control of weeds,"Bidens pilosa; 2250 g a.i/ha, 28 DAA",93%
same,percentage (%) control of weeds,"Bidens pilosa; 2250 g a.i/ha, 35 DAA",95%
same,percentage (%) control of weeds,"Bidens pilosa; 2250 g a.i/ha, 49 DAA",94%
same,percentage (%) control of weeds,"Brachiaria plantaginea; 1800 g a.i/ha, 28 DAA",92%
same,percentage (%) control of weeds,"Brachiaria plantaginea; 1800 g a.i/ha, 35 DAA",92%
same,percentage (%) control of weeds,"Brachiaria plantaginea; 1800 g a.i/ha, 49 DAA",83%
same,percentage (%) control of weeds,"Brachiaria plantaginea; 2250 g a.i/ha, 28 DAA",95%
same,percentage (%) control of weeds,"Brachiaria plantaginea; 2250 g a.i/ha, 35 DAA",88%
same,percentage (%) control of weeds,"Brachiaria plantaginea; 2250 g a.i/ha, 49 DAA",73%
same,percentage (%) control of weeds,"Brachiaria plantaginea; 2500 g a.i/ha, 28 DAA",93%
same,percentage (%) control of weeds,"Brachiaria plantaginea; 2500 g a.i/ha, 35 DAA",92%
same,percentage (%) control of weeds,"Brachiaria plantaginea; 2500 g a.i/ha, 49 DAA",100%
same,percentage (%) control of weeds,"Cynodon dactylon; 2400 g a.i/ha, 28 DAA",94%
same,percentage (%) control of weeds,"Cynodon dactylon; 2400 g a.i/ha, 35 DAA",97%
same,percentage (%) control of weeds,"Cynodon dactylon; 2400 g a.i/ha, 49 DAA",99%
same,percentage (%) control of weeds,"Cynodon dactylon; 2800 g a.i/ha, 28 DAA",96%
same,percentage (%) control of weeds,"Cynodon dactylon; 2800 g a.i/ha, 35 DAA",97%
same,percentage (%) control of weeds,"Cynodon dactylon; 2800 g a.i/ha, 49 DAA",100%
same,percentage (%) control of weeds,"Cynodon dactylon; 3200 g a.i/ha, 28 DAA",94%
same,percentage (%) control of weeds,"Cynodon dactylon; 3200 g a.i/ha, 35 DAA",94%
same,percentage (%) control of weeds,"Cynodon dactylon; 3200 g a.i/ha, 49 DAA",96%
same,percentage (%) control of weeds,"Cynodon dactylon; 4000 g a.i/ha, 28 DAA",95%
same,percentage (%) control of weeds,"Cynodon dactylon; 4000 g a.i/ha, 35 DAA",96%
same,percentage (%) control of weeds,"Cynodon dactylon; 4000 g a.i/ha, 49 DAA",100%
same,percentage (%) control of weeds,"Digitaria nuda; 2800 g a.i/ha, 28 DAA",99%
same,percentage (%) control of weeds,"Digitaria nuda; 2800 g a.i/ha, 35 DAA",99%
same,percentage (%) control of weeds,"Digitaria nuda; 2800 g a.i/ha, 49 DAA",99%
same,percentage (%) control of weeds,"Digitaria nuda; 3200 g a.i/ha, 28 DAA",96%
same,percentage (%) control of weeds,"Digitaria nuda; 3200 g a.i/ha, 35 DAA",100%
same,percentage (%) control of weeds,"Digitaria nuda; 3200 g a.i/ha, 49 DAA",100%
same,percentage (%) control of weeds,"Digitaria nuda; 4000 g a.i/ha, 28 DAA",93%
same,percentage (%) control of weeds,"Digitaria nuda; 4000 g a.i/ha, 35 DAA",94%
same,percentage (%) control of weeds,"Digitaria nuda; 4000 g a.i/ha, 49 DAA",94%
